PubChem BioAssay AID248 (DTP/NCI, 2004)
“And” between values parts separate entries of the source, which are not always exact repeats. Equal entries are not always repeated. Toxic doses and inconclusive results are not listed. Cut-off read from the data, not from the text of the source: active = T/C of 150% or more; inactive = T/C below 125%.

Tested on: L1210 leukemia ip in BDF1 mice, survival T/C
Experiment: NCI In Vivo Anticancer Drug Screen. Data for tumor model L1210 Leukemia (intraperitoneal) in B6D2F1 (BDF1) mice
Conditions: endpoint: mean survival time, higher = longer survival
Method in brief: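 Survival endpoint. Drug-treated group vs vehicle group, expressed as T divided by C. Tumor passaged by transplantation.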

[1] = dose: 100.0 mg/kg/injection, schedule: Q01DX001 (ip), vehicle: carboxymethylcellulose (CMC)
[2] = dose: 200.0 mg/kg/injection, schedule: Q01DX001 (ip), vehicle: carboxymethylcellulose (CMC)
[3] = dose: 400.0 mg/kg/injection, schedule: Q01DX001 (ip), vehicle: carboxymethylcellulose (CMC)
[4] = dose: 100.0 mg/kg/injection, schedule: Q04DX002 (ip), vehicle: saline with Tween-80
[5] = dose: 200.0 mg/kg/injection, schedule: Q04DX002 (ip), vehicle: saline with Tween-80
[6] = dose: 400.0 mg/kg/injection, schedule: Q04DX002 (ip), vehicle: saline with Tween-80
[7] = dose: 100.0 mg/kg/injection, schedule: Q04DX003 (ip), vehicle: saline with Tween-80
[8] = dose: 200.0 mg/kg/injection, schedule: Q04DX003 (ip), vehicle: saline with Tween-80
[9] = dose: 400.0 mg/kg/injection, schedule: Q04DX003 (ip), vehicle: saline with Tween-80
[10] = dose: 100.0 mg/kg/injection, schedule: Q01DX009 (ip), vehicle: saline with Tween-80
[11] = dose: 200.0 mg/kg/injection, schedule: Q01DX009 (ip), vehicle: saline with Tween-80
[12] = dose: 50.0 mg/kg/injection, schedule: Q01DX009 (ip), vehicle: saline with Tween-80
[13] = dose: 25.0 mg/kg/injection, schedule: Q04DX003 (ip), vehicle: saline
[14] = dose: 50.0 mg/kg/injection, schedule: Q04DX003 (ip), vehicle: saline
[15] = dose: 100.0 mg/kg/injection, schedule: Q04DX003 (ip), vehicle: saline
[16] = dose: 200.0 mg/kg/injection, schedule: Q04DX003 (ip), vehicle: saline
[17] = dose: 400.0 mg/kg/injection, schedule: Q04DX003 (ip), vehicle: saline

Measured: T/C

Cc1ccc2c(c1)OC(=O)CC2C (centres undefined)
inactive: [1] 100 % of control | [2] 96 % of control | [3] 96 % of control

O=C(O)C(O)c1ccc([N+](=O)[O-])cc1 (centres undefined)
inactive: dose: 75.0 mg/kg/injection, schedule: Q01DX001 (ip), vehicle: saline 92 % of control | [4] 95 % of control | dose: 150.0 mg/kg/injection, schedule: Q01DX001 (ip), vehicle: saline 94 % of control | [5] 103 % of control | dose: 300.0 mg/kg/injection, schedule: Q01DX001 (ip), vehicle: saline 90 % of control | [6] 100 % of control

NC(N)=N/N=C/CN1C(=O)c2ccccc2C1=O
inactive: dose: 60.0 mg/kg/injection, schedule: Q01DX Z (oral), vehicle: methylcellulose (MC) 104 % of control | dose: 120.0 mg/kg/injection, schedule: Q01DX Z (oral), vehicle: methylcellulose (MC) 94 % of control | dose: 240.0 mg/kg/injection, schedule: Q01DX Z (oral), vehicle: methylcellulose (MC) 109 % of control | dose: 480.0 mg/kg/injection, schedule: Q01DX Z (oral), vehicle: methylcellulose (MC) 98 % of control

CNS(=O)(=O)CCC(N)C(=O)O (centres undefined)
inactive: [7] 97 % of control | [8] 103 % of control | [9] 97 % of control

OC(CC(CC(O)(C(F)(F)F)C(F)(F)F)=NNc1ccccc1)(C(F)(F)F)C(F)(F)F
inactive: dose: 25.0 mg/kg/injection, schedule: Q04DX003 (ip), vehicle: saline with Tween-80 101 % of control | dose: 50.0 mg/kg/injection, schedule: Q04DX003 (ip), vehicle: saline with Tween-80 101 % of control | [7] 93 % of control and 90 % of control

CN(C)Cc1ccccc1C(=O)C(c1ccccc1)c1ccccc1
inactive: dose: 55.0 mg/kg/injection, schedule: Q01DX Z (ip), vehicle: methylcellulose (MC) 100 % of control | dose: 83.0 mg/kg/injection, schedule: Q01DX Z (ip), vehicle: methylcellulose (MC) 94 % of control

O=S(=O)(Nc1ccc(Br)cc1)c1ccccc1
inactive: [10] 99 % of control | [7] 105 % of control | [11] 87 % of control | [8] 100 % of control | dose: 400.0 mg/kg/injection, schedule: Q01DX009 (ip), vehicle: saline with Tween-80 95 % of control | [9] 98 % of control

O=C(Nc1ccc(F)cc1)Nc1ccc(Cl)cc1[N+](=O)[O-]
inactive: [12] 94 % of control and 95 % of control | dose: 100.0 mg/kg/injection, schedule: Q01DX001 (ip), vehicle: saline with Tween-80 100 % of control | [4] 102 % of control and 92 % of control | [7] 100 % of control | dose: 200.0 mg/kg/injection, schedule: Q01DX001 (ip), vehicle: saline with Tween-80 95 % of control | [5] 95 % of control and 101 % of control | [8] 97 % of control | dose: 400.0 mg/kg/injection, schedule: Q01DX001 (ip), vehicle: saline with Tween-80 92 % of control | [6] 93 % of control and 98 % of control | [9] 94 % of control

O=C1NC(=O)C(CO)(CO)N1
inactive: dose: 12.5 mg/kg/injection, schedule: Q04DX003 (ip), vehicle: saline 110 % of control | [13] 97 % of control | [14] 100 % of control | dose: 100.0 mg/kg/injection, schedule: Q01DX009 (ip), vehicle: saline 110 % of control | [15] 121 % of control | dose: 200.0 mg/kg/injection, schedule: Q01DX009 (ip), vehicle: saline 107 % of control | [16] 103 % of control | dose: 400.0 mg/kg/injection, schedule: Q01DX009 (ip), vehicle: saline 113 % of control | [17] 105 % of control

Cc1cc(O)ccc1C#N
inactive: dose: 100.0 mg/kg/injection, schedule: Q04DX002 (ip), vehicle: saline 102 % of control | dose: 200.0 mg/kg/injection, schedule: Q04DX002 (ip), vehicle: saline 102 % of control | dose: 400.0 mg/kg/injection, schedule: Q04DX002 (ip), vehicle: saline 104 % of control

CN(C)C(=O)C1C2C=CC(C2)C1C(=O)N(C)C (centres undefined)
inactive: [7] 98 % of control | [8] 95 % of control | [9] 98 % of control

Cc1ccc(S(=O)(=O)N(CC(=O)O)c2c[nH]c(C(=O)O)c2)cc1
inactive: dose: 100.0 mg/kg/injection, schedule: Q01DX009 (ip), vehicle: acetone 92 % of control | dose: 200.0 mg/kg/injection, schedule: Q01DX009 (ip), vehicle: acetone 95 % of control | dose: 400.0 mg/kg/injection, schedule: Q01DX009 (ip), vehicle: acetone 88 % of control

O=C(CCl)Oc1c(Cl)c(Cl)c(Cl)c(Cl)c1Cl
inactive: dose: 6.25 mg/kg/injection, schedule: Q04DX003 (ip), vehicle: alcohol 100 % of control | dose: 12.5 mg/kg/injection, schedule: Q04DX003 (ip), vehicle: alcohol 98 % of control | dose: 25.0 mg/kg/injection, schedule: Q04DX003 (ip), vehicle: alcohol 98 % of control | dose: 100.0 mg/kg/injection, schedule: Q04DX003 (ip), vehicle: alcohol 111 % of control

Cl/C=C\C[N+]12CN3CN(CN(C3)C1)C2
inactive: [13] 100 % of control | [14] 94 % of control

CC1(C)CCSC(/C=C/c2ccccc2)=N1
inactive: [15] 100 % of control | [16] 102 % of control | [17] 103 % of control

Fc1cccc(/C=C2/c3cc(Cl)ccc3-c3c(Cl)cc(Cl)cc32)c1
inactive: dose: 100.0 mg/kg/injection, schedule: Q01DX001 (ip), vehicle: Klucel (hydroxypropylcellulose) (HPC) 93 % of control | dose: 100.0 mg/kg/injection, schedule: Q01DX009 (ip), vehicle: Klucel (hydroxypropylcellulose) (HPC) 88 % of control | dose: 100.0 mg/kg/injection, schedule: Q04DX003 (ip), vehicle: Klucel (hydroxypropylcellulose) (HPC) 91 % of control | dose: 200.0 mg/kg/injection, schedule: Q01DX001 (ip), vehicle: Klucel (hydroxypropylcellulose) (HPC) 91 % of control | dose: 200.0 mg/kg/injection, schedule: Q01DX009 (ip), vehicle: Klucel (hydroxypropylcellulose) (HPC) 89 % of control | dose: 200.0 mg/kg/injection, schedule: Q04DX003 (ip), vehicle: Klucel (hydroxypropylcellulose) (HPC) 93 % of control | dose: 400.0 mg/kg/injection, schedule: Q01DX001 (ip), vehicle: Klucel (hydroxypropylcellulose) (HPC) 88 % of control | dose: 400.0 mg/kg/injection, schedule: Q01DX009 (ip), vehicle: Klucel (hydroxypropylcellulose) (HPC) 96 % of control | dose: 400.0 mg/kg/injection, schedule: Q04DX003 (ip), vehicle: Klucel (hydroxypropylcellulose) (HPC) 88 % of control

Nc1ccc(-c2ccc(N)cc2I)c(I)c1
inactive: dose: 25.6 mg/kg/injection, schedule: Q04DX002 (ip), vehicle: saline with Tween-80 100 % of control | dose: 64.0 mg/kg/injection, schedule: Q04DX002 (ip), vehicle: saline with Tween-80 95 % of control | dose: 160.0 mg/kg/injection, schedule: Q04DX002 (ip), vehicle: saline with Tween-80 100 % of control | [6] 103 % of control

O=C(CCC1c2ccccc2C(=O)c2ccccc21)c1ccccc1
inactive: [12] 108 % of control | [10] 97 % of control | [11] 101 % of control

N#Cc1c2ccccc2nc2ccccc12
inactive: dose: 50.0 mg/kg/injection, schedule: Q01DX001 (ip), vehicle: carboxymethylcellulose (CMC) 90 % of control | [1] 92 % of control | [2] 90 % of control | [3] 90 % of control
